Source: the supplement of paper PMC10307832

What was measured:
Test in all cases: relative viability (nuclei count vs DMSO), 5 days (fraction); higher = more cells survive
Elesclomol = compound: CN(NC(=O)CC(=O)NN(C)C(=S)c1ccccc1)C(=S)c1ccccc1 [Elesclomol]
Outline: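 MetaXpress counted nuclei in 4× images of lung cancer cell lines that had been fixed, permeabilised and Hoechst-stained in one step. Before that, cells in 1536-well plates were kept overnight at 37 °C, pinned with five √10-spaced library-drug doses on vehicle-anchored plates, and cultured 5 days without medium change. Viability takes treated-well nuclei over vehicle-well nuclei and uses the median across plates. Plates were accepted only at control CV below 25% and at least one doubling.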

Elesclomol + Vorinostat = compound: CN(NC(=O)CC(=O)NN(C)C(=S)c1ccccc1)C(=S)c1ccccc1 [Elesclomol] + O=C(CCCCCCC(=O)Nc1ccccc1)NO [Vorinostat] (partner 1 µM)
Outline: (§1)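 Values are medians from duplicate plates. Each reflects relative viability, defined as the nuclei count of treated wells over that of vehicle wells. Lung cancer cell lines in 1536-well plates were pin-tool dosed one day after seeding with one drug alone or with a fixed anchor-drug dose plus five library-drug doses (not always all listed) in √10 steps, then fixed, stained and imaged at 4× after 5 days.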

Elesclomol + Linsitinib = compound: CN(NC(=O)CC(=O)NN(C)C(=S)c1ccccc1)C(=S)c1ccccc1 [Elesclomol] + C[C@]1(O)C[C@@H](c2nc(-c3ccc4ccc(-c5ccccc5)nc4c3)c3c(N)nccn32)C1 [Linsitinib] (partner 1 µM)
Outline: as §1

Elesclomol + Luminespib = compound: CN(NC(=O)CC(=O)NN(C)C(=S)c1ccccc1)C(=S)c1ccccc1 [Elesclomol] + CCNC(=O)c1noc(-c2cc(C(C)C)c(O)cc2O)c1-c1ccc(CN2CCOCC2)cc1 [Luminespib] (partner 0.01 µM)
Outline: as §1

Elesclomol + Crizotinib = compound: CN(NC(=O)CC(=O)NN(C)C(=S)c1ccccc1)C(=S)c1ccccc1 [Elesclomol] + C[C@@H](Oc1cc(-c2cnn(C3CCNCC3)c2)cnc1N)c1c(Cl)ccc(F)c1Cl [Crizotinib] (partner 1 µM)
Outline: as §1

Cell Line | relative viability (Elesclomol; 0.003162 µM) | relative viability (Elesclomol; 0.01 µM) | relative viability (Elesclomol; 0.03162 µM) | relative viability (Elesclomol; 0.1 µM) | relative viability (Elesclomol + Vorinostat; first compound 0.003162 µM) | relative viability (Elesclomol + Vorinostat; first compound 0.01 µM) | relative viability (Elesclomol + Vorinostat; first compound 0.03162 µM) | relative viability (Elesclomol + Vorinostat; first compound 0.1 µM) | relative viability (Elesclomol + Linsitinib; first compound 0.003162 µM) | relative viability (Elesclomol + Linsitinib; first compound 0.03162 µM) | relative viability (Elesclomol + Linsitinib; first compound 0.1 µM) | relative viability (Elesclomol + Luminespib; first compound 0.003162 µM) | relative viability (Elesclomol + Luminespib; first compound 0.01 µM) | relative viability (Elesclomol + Luminespib; first compound 0.03162 µM) | relative viability (Elesclomol + Luminespib; first compound 0.1 µM) | relative viability (Elesclomol + Crizotinib; first compound 0.003162 µM) | relative viability (Elesclomol + Crizotinib; first compound 0.03162 µM) | relative viability (Elesclomol + Crizotinib; first compound 0.1 µM) | relative viability (Elesclomol + Linsitinib; first compound 0.01 µM) | relative viability (Elesclomol + Crizotinib; first compound 0.01 µM)
LU99A | 0.919 | 0.811 | 0.986 | 0.544 | 0.438 | 0.459 | 0.429 | 0.162 | 0.544 | 0.615 | 0.117 | 0.264 | 0.21 | 0.227 | 0.189 | 0.545 | 0.648 | 0.121 | – | –
LXF-289 | 1.03 | 0.956 | 0.95 | 0.772 | 0.79 | 0.779 | 0.706 | 0.483 | 0.941 | 0.938 | 0.693 | 0.676 | 0.661 | 0.691 | 0.316 | 0.811 | 0.767 | 0.588 | 0.863 | 0.775
NCI-H23 | 1 | 0.566 | 0.786 | 0.128 | 0.559 | 0.385 | 0.318 | 0.0919 | 0.572 | 0.504 | 0.143 | 0.171 | 0.17 | 0.154 | 0.164 | 0.56 | 0.49 | 0.116 | – | –
NCI-H322M | 0.893 | 0.29 | 0.363 | 0.266 | 0.72 | 0.42 | 0.289 | 0.191 | 0.977 | 0.916 | 0.606 | 0.311 | 0.288 | 0.231 | 0.14 | 0.911 | 0.98 | 0.552 | – | –
NCI-H358 | 0.752 | 0.225 | 0.215 | 0.196 | 0.62 | 0.0764 | 0.0906 | 0.0819 | 0.279 | 0.152 | 0.156 | 0.194 | 0.141 | 0.137 | 0.117 | 0.215 | 0.204 | 0.171 | 0.234 | 0.151
NCI-H441 | 1.06 | 0.945 | 0.55 | 0.179 | 0.553 | 0.729 | 0.445 | 0.17 | 0.386 | 0.276 | 0.0877 | 0.312 | 0.446 | 0.29 | 0.111 | 0.836 | 0.286 | 0.113 | 0.511 | 0.461
NCI-H460 | 1.01 | 0.825 | 0.557 | 0.0845 | 0.712 | 0.508 | 0.275 | 0.018 | 0.719 | 0.0104 | 0.01 | 0.0311 | 0.0324 | 0.0198 | 0.0215 | 0.624 | 0.0112 | 0.0109 | 0.123 | 0.0306
NCI-H520 | 1.03 | 0.87 | 0.584 | 0.134 | 0.775 | 0.662 | 0.225 | 0.0994 | 1.04 | 0.354 | 0.0801 | 0.238 | 0.188 | 0.193 | 0.164 | 0.69 | 0.233 | 0.0848 | 0.912 | 0.713
NCI-H596 | 0.983 | 0.842 | 0.865 | 0.243 | 0.632 | 0.577 | 0.485 | 0.219 | 1.12 | 0.978 | 0.267 | 0.845 | 0.924 | 0.787 | 0.186 | 0.92 | 0.95 | 0.184 | 1.13 | 0.948
NCI-H647 | 1 | 0.617 | 0.377 | 0.062 | 0.24 | 0.337 | 0.133 | 0.0479 | 1.1 | 0.753 | 0.0738 | 0.113 | 0.0912 | 0.0748 | 0.0628 | 1.1 | 0.39 | 0.0391 | 0.801 | 0.813
NCI-H650 | 1 | 0.696 | 0.332 | 0.249 | 0.539 | 0.38 | 0.184 | 0.132 | 1.04 | 0.304 | 0.291 | 0.791 | 0.401 | 0.196 | 0.18 | 0.666 | 0.254 | 0.256 | 0.308 | 0.264
NCI-H661 | 0.91 | 0.807 | 0.374 | 0.298 | 0.768 | 0.565 | 0.304 | 0.26 | 0.55 | 0.169 | 0.145 | 0.845 | 0.326 | 0.282 | 0.214 | 0.991 | 0.361 | 0.283 | 0.242 | 0.619
NCI-H727 | 1.04 | 0.699 | 0.494 | 0.301 | 1.14 | 1.18 | 1.03 | 0.641 | 0.297 | 0.117 | 0.0471 | 0.388 | 0.478 | 0.22 | 0.123 | 0.681 | 0.096 | 0.0428 | 0.217 | 0.453
NCI-H838 | 0.959 | 0.883 | 0.792 | 0.454 | 0.723 | 0.706 | 0.609 | 0.303 | 1.02 | 0.879 | 0.688 | 0.33 | 0.235 | 0.166 | 0.109 | 0.833 | 0.691 | 0.414 | 0.907 | 0.745
NCI-H1355 | 1.02 | 0.685 | 0.593 | 0.297 | 0.617 | 0.524 | 0.418 | 0.213 | 0.803 | 0.486 | 0.17 | 0.713 | 0.623 | 0.413 | 0.171 | 1.02 | 0.701 | 0.203 | 0.663 | 1.02
NCI-H1437 | 0.879 | 0.635 | 0.504 | 0.47 | 0.74 | 0.411 | 0.322 | 0.334 | 0.883 | 0.271 | 0.186 | 0.967 | 0.689 | 0.445 | 0.436 | 0.769 | 0.504 | 0.329 | 0.56 | 0.457
